Data reported in patent US12083089B2, “Compositions and methods for stimulating ventilatory and/or respiratory drive” (CASE WESTERN RESERVE UNIVERSITY, priority 2015, dated 2024).

What was measured:
adult male rats = test: Von Frey Test, morphine 1 mg/kg; type: in vivo, rat; details: given alone, morphine 1 mg/kg IV
freely moving rats = test: Arterial blood-gas chemistry and A-a gradient in morphine-treated rats; type: in vivo, rat; details: freely moving rats, morphine 10 mg/kg IV, then drug 500 μmol/kg IV 15 min later

CN1CC[C@]23c4c5ccc(O)c4O[C@H]2[C@@H](O)C=C[C@H]3[C@H]1C5 [Morphine, morphine]
force needed to initiate hind-paw withdrawal (Von Frey) (adult male rats; D-cystine diME 500 μmol/kg IV, FIG. 27 study): 177±8 grams
force needed to initiate hind-paw withdrawal (Von Frey) (adult male rats; L-cystine diME 500 μmol/kg IV, FIG. 25 study): 88.3 ± 7.0 g
changes in ABG chemistry (pH, pCO2, pO2 and sO2) (freely moving rats; FIG. 18): substantial falls in pH, pO2 and sO2 accompanied by substantial increases in pCO2
changes in A-a gradient (freely moving rats; FIG. 19): substantial and equivalent increases
